Results taken from patent US20260070921A1, “COMPOUND, ENDOPLASMIC RETICULUM STRESS INHIBITOR, PHARMACEUTICAL PRODUCT, OPHTHALMIC AGENT, EYE DROPS, COMPOSITION, AND METHOD FOR PRODUCING COMPOUND” (KYOTO UNIVERSITY, priority 2022, published 2026).

Assays:
[1] = test system: HEK293 cells; experiment: Tunicamycin assay (cell viability under ER stress, WST-8); type: cell-based; parameters: key to Efficacy 5 μM (ER stress inhibition activity) / Efficacy 25 μM (ER stress inhibition activity) / Efficacy 100 μM (ER stress inhibition activity): “−” indicates no activity; “+” indicates weak activity; “++” indicates strong activity; conditions: for Efficacy 5 μM (ER stress inhibition activity): compound 5 μM 12 to 18 h; for Efficacy 5 μM (ER stress inhibition activity) / Efficacy 25 μM (ER stress inhibition activity) / Efficacy 100 μM (ER stress inhibition activity): then tunicamycin 5 μg/mL 48 h; for Efficacy 25 μM (ER stress inhibition activity): compound 25 μM 12 to 18 h; for Efficacy 100 μM (ER stress inhibition activity): compound 100 μM 12 to 18 h
Experimental: HEK293 cells were seeded in 96-well plates ([…]) and incubated at 37° C. for 2 hours. The medium was then replaced with 100 μL of DMEM ([…]) containing self-assembling chemicals (20 or more compounds, including compounds of the present disclosure) and 1% DMSO. After incubation with any one of compounds 1 to 6 at a given concentration for 12 to 18 hours, HEK293 cells were treated with tunicamycin (5 μg/mL) or thapsigargin (10 μM) for 48 hours, and cell viability was measured using a WST-8 cell counting kit (Dojindo Laboratories).
Produced compounds XD8 to XD28 were subjected to a tunicamycin assay in the same manner as in Examples 1 to 9. Specifically, HEK293 cells were first seeded in a 96-well plate (1×10^4 cells/well) and incubated at 37° C. for 2 hours. The medium was then replaced with 100 μL of DMEM (10% FBS) containing a self-assembling chemical (each of compounds XD8 to XD28) and […]. After incubation with any of compounds XD8 to XD28 at a concentration of 5.0 μM, 25 μM, or 100 μM for 12 to 18 hours, HEK293 cells were treated with tunicamycin (5 μg/mL) for 48 hours, followed by measuring cell viability by using a WST-8 cell counting kit (Dojindo Laboratories).

[2] = test system: HEK293 cells; experiment: Flow cytometry of intracellular assemblies of compound 1 with endocytosis inhibitors; type: cell-based; conditions: compound 1 100 μM; chloroquine 100 μM, chlorpromazine 20 μM; 16 h
Experimental: HEK293 cells were seeded in 12-well plates at 3×10^5 cells/well. After 2 hours of incubation at 37° C., cells were treated with compound 1 (100 μM) and 9-(2,2-dicyanovinyl)julolidine (DCVJ, 1.0 μM) in the presence or absence of chloroquine (100 μM), chlorpromazine (20 μM), and genistein ([…]) in DMEM (10% FBS) at 37° C. for 16 hours. Cells were harvested by incubation in 2 mM EDTA/PBS (pH of 7.4) for 10 minutes. Fluorescence of the cells was measured using a BD FACSAria II and analyzed with BD FACSDiva software.

[3] = Dynamic light scattering (DLS) of self-assemblies; type: physicochemical
From the text: In the graphs on the left, the vertical axis “Z-ave. (nm)” represents the average particle size. In the graphs on the right, the vertical axis “Derived Count Rate (kcps)” represents the derived count rate. The horizontal axis represents the molar concentration (PM) of PBS (pH of 7.4) and DMEM (10% FBS). Error bars represent s.d. (n=3).
“Z-ave.” represents the average size of particles. Error bars represent s.d. (n=3).
“Z-average” represents the average size of particles. Error bars represent s.d. (n=3).

[4] = test system: HEK293 cells; experiment: Cell viability assay without ER stress inducer (cytotoxicity, WST-8); type: cell-based; conditions: 64 h
Experimental: HEK293 cells were treated with compound 1, compound 4, compound 5, or compound 6 (25 μM or 100 μM, respectively) for 64 hours. The vertical axis represents relative cell viability (unit: %), and the horizontal axis represents concentration (unit: μM). Cell viability was measured using a WST-8 cell counting kit. Error bars represent s.d. (n=3).
(§1) FIG. 31 is a graph showing the results of a cell viability assay using bafilomycin A1. HEK293 cells were treated with bafilomycin A1 in DMEM (10% FBS) for 48 hours. The vertical axis represents relative cell viability (unit: %), and the horizontal axis represents the concentration of bafilomycin A1 (unit: μM). Cell viability was measured using a WST-8 cell counting kit. Error bars represent s.d. (n=3).
as §1, with “32” for “31”, “MG132.” for “bafilomycin A1.”, “MG132” for “bafilomycin A1”, “t),” for “%),”
The term “Efficacy” denotes ER (endoplasmic reticulum) stress inhibition activity. The term “Toxicity” denotes cytotoxicity. In the ER stress inhibition activity (Efficacy), “−” indicates no activity, “+” indicates weak activity, and “++” indicates strong activity. In addition, “XD7” in Table 1 below represents compound 6. That is, XD7 and compound 6 are the same compound.

[5] = test system: HEK293 cells; experiment: Fluorescence imaging of self-assemblies in living cells (DCVJ); type: cell-based; conditions: 100 μM, DCVJ 1.0 μM, 8 h
Experimental: HEK293 cells were incubated with compound 1, 4, 5, or 6 (25 or 100 μM) in the presence of 1.0 μM DCVJ in DMEM (10% FBS). Fluorescence and bright-field images were taken with a CV1000 confocal microscope equipped with a 40× objective lens (Yokogawa Electric Corporation).
The ability of compound 1 and its derivatives, compounds 4 to 6, to form assemblies was also monitored in living cells. […] HEK293 cells were treated with compound 1, 4, 5, or 6 (25 μM or 100 μM) and 1.0 μM of DCVJ for 8 hours. Fluorescence and bright-field images were taken with a CV1000 confocal microscope. HEK293 cells were treated with compound 1, 4, 5, or 6 (25 or 100 μM) and DCVJ (1.0 μM) for 8 hours and observed with a confocal microscope. […] The self-assembling ability of the molecules of compound 6 may be due to its cellular activity at that concentration, even at 25 μM. […] To further support the importance of self-organization formation in cellular activity, dose-response curves for compounds 1 and 6 were determined. The biological activity of the compounds' molecular assembly is expected to be more cooperative than that of the monomer and to show a steeper dose-response curve (Reference Material 18 below). […] Compound 6 is referred to as “selfonamide” below. […] P. A High-Throughput Screen for Aggregation-Based Inhibition in a Large Compound Library. J Med Chem 2007, 50 (10), 2385-2390. https://doi.org/10.1021/jm061317y.

[6] = even at higher concentrations, tunicamycin 5.0 μg/mL 48 h

O=C(O)CCCc1ccccc1 [PBA, reference compound]
Rescue from tunicamycin-induced cell death (secondary screen) [1, 6]: little effect
EC50 ([1]; tunicamycin 5.0 μg/mL 48 h, read-out: EC50 (dose-response curve, Hill equation)): 483 µM

NS(=O)(=O)c1ccc(Nc2ccnc(N(C(=O)c3sc4cc(F)ccc4c3Cl)C(=O)c3sc4cc(F)ccc4c3Cl)n2)cc1 [TD-4C8]
Rescue from tunicamycin-induced cell death (secondary screen) ([1]; compound 50 μM, tunicamycin 5.0 μg/mL 48 h): significantly rescued cells from tunicamycin-induced cell death

C[C@H](CCC(=O)NCCS(=O)(=O)O)[C@H]1CC[C@H]2[C@@H]3[C@@H](O)C[C@@H]4C[C@H](O)CC[C@]4(C)[C@H]3CC[C@]12C [TUDCA, reference compound]
Rescue from tunicamycin-induced cell death (secondary screen) [1, 6]: little effect

NS(=O)(=O)c1ccc(Nc2ccn3c(n2)nc(=O)c2sc4cc(Cl)ccc4c23)cc1 [XD8]
Efficacy 5 μM (ER stress inhibition activity) [1]: −
Efficacy 25 μM (ER stress inhibition activity) [1]: +
Efficacy 100 μM (ER stress inhibition activity) [1]: ++

NS(=O)(=O)c1ccc(Nc2ccn3c(n2)nc(=O)c2sc4cc([N+](=O)[O-])ccc4c23)cc1 [XD9]
Efficacy 5 μM (ER stress inhibition activity) [1]: −
Efficacy 25 μM (ER stress inhibition activity) [1]: ++
Efficacy 100 μM (ER stress inhibition activity) [1]: +

NS(=O)(=O)c1ccc(Nc2ccn3c(n2)nc(=O)c2sc4cc5c(cc4c23)OCO5)cc1 [XD10]
Efficacy 5 μM (ER stress inhibition activity) [1]: −
Efficacy 25 μM (ER stress inhibition activity) [1]: −
Efficacy 100 μM (ER stress inhibition activity) [1]: −

COc1cc2sc3c(=O)nc4nc(Nc5ccc(S(N)(=O)=O)cc5)ccn4c3c2cc1OC [XD11]
Efficacy 5 μM (ER stress inhibition activity) [1]: −
Efficacy 25 μM (ER stress inhibition activity) [1]: −
Efficacy 100 μM (ER stress inhibition activity) [1]: ++

NS(=O)(=O)c1ccc(Nc2ccn3c(n2)nc(=O)c2sc4cc(Br)ccc4c23)cc1 [XD12]
Efficacy 5 μM (ER stress inhibition activity) [1]: −
Efficacy 25 μM (ER stress inhibition activity) [1]: +
Efficacy 100 μM (ER stress inhibition activity) [1]: ++

NS(=O)(=O)c1ccc(Nc2ccn3c(n2)nc(=O)c2sc4cc(F)c(F)cc4c23)cc1 [XD13]
Efficacy 5 μM (ER stress inhibition activity) [1]: −
Efficacy 25 μM (ER stress inhibition activity) [1]: ++
Efficacy 100 μM (ER stress inhibition activity) [1]: ++

CCOc1ccc2c(c1)sc1c(=O)nc3nc(Nc4ccc(S(N)(=O)=O)cc4)ccn3c12 [XD14]
Efficacy 5 μM (ER stress inhibition activity) [1]: −
Efficacy 25 μM (ER stress inhibition activity) [1]: −
Efficacy 100 μM (ER stress inhibition activity) [1]: −

CCCOc1ccc2c(c1)sc1c(=O)nc3nc(Nc4ccc(S(N)(=O)=O)cc4)ccn3c12 [XD15]
Efficacy 5 μM (ER stress inhibition activity) [1]: −
Efficacy 25 μM (ER stress inhibition activity) [1]: −
Efficacy 100 μM (ER stress inhibition activity) [1]: −

CCCCOc1ccc2c(c1)sc1c(=O)nc3nc(Nc4ccc(S(N)(=O)=O)cc4)ccn3c12 [XD16]
Efficacy 5 μM (ER stress inhibition activity) [1]: −
Efficacy 25 μM (ER stress inhibition activity) [1]: −
Efficacy 100 μM (ER stress inhibition activity) [1]: −

CCCCCCOc1ccc2c(c1)sc1c(=O)nc3nc(Nc4ccc(S(N)(=O)=O)cc4)ccn3c12 [XD17]
Efficacy 5 μM (ER stress inhibition activity) [1]: −
Efficacy 25 μM (ER stress inhibition activity) [1]: −
Efficacy 100 μM (ER stress inhibition activity) [1]: +

NS(=O)(=O)c1ccc(Nc2ccn3c(n2)nc(=O)c2sc4cc(OCc5ccccc5)ccc4c23)cc1 [XD18]
Efficacy 5 μM (ER stress inhibition activity) [1]: −
Efficacy 25 μM (ER stress inhibition activity) [1]: −
Efficacy 100 μM (ER stress inhibition activity) [1]: −

N=C(N)NS(=O)(=O)c1ccc(Nc2ccn3c(n2)nc(=O)c2sc4cc([N+](=O)[O-])ccc4c23)cc1 [XD20]
Efficacy 100 μM (ER stress inhibition activity) [1]: +

COc1ccc2c(c1)sc1c(=O)nc3nc(Nc4ccc(S(=O)(=O)NC(=N)N)cc4)ccn3c12 [XD21]
Efficacy 25 μM (ER stress inhibition activity) [1]: ++
Efficacy 100 μM (ER stress inhibition activity) [1]: ++

CCCOc1ccc2c(c1)sc1c(=O)nc3nc(Nc4ccc(S(=O)(=O)NC(=N)N)cc4)ccn3c12 [XD25]
Efficacy 25 μM (ER stress inhibition activity) [1]: ++
Efficacy 100 μM (ER stress inhibition activity) [1]: +

CCCCOc1ccc2c(c1)sc1c(=O)nc3nc(Nc4ccc(S(=O)(=O)NC(=N)N)cc4)ccn3c12 [XD26]
Efficacy 25 μM (ER stress inhibition activity) [1]: +
Efficacy 100 μM (ER stress inhibition activity) [1]: ++

N=C(N)NS(=O)(=O)c1ccc(Nc2ccn3c(n2)nc(=O)c2sc4cc(OCc5ccccc5)ccc4c23)cc1 [XD28]
Efficacy 100 μM (ER stress inhibition activity) [1]: ++

CCN(CC)CCCC(C)Nc1ccnc2cc(Cl)ccc12 (centres unmarked) [chloroquine]
Reduction of average DCVJ signal (intracellular assemblies of compound 1) [2]: about 30%

CN(C)CCCN1c2ccccc2Sc2ccc(Cl)cc21 [chlorpromazine]
Reduction of average DCVJ signal (intracellular assemblies of compound 1) [2]: about 30%

O=c1nc2nc(Nc3ccccc3)ccn2c2c1sc1cc(F)ccc12 [compound 2]
Ability to rescue cells from tunicamycin-induced ER stress ([1]; tunicamycin 5.0 μg/mL 48 h): eliminated the ability of the compounds to rescue cells
Self-assembly activity (self-assembling ability) [3]: confirmed to have self-assembly activity

CS(=O)(=O)c1ccc(Nc2ccn3c(n2)nc(=O)c2sc4cc(F)ccc4c23)cc1 [compound 3]
Ability to rescue cells from tunicamycin-induced ER stress ([1]; tunicamycin 5.0 μg/mL 48 h): eliminated the ability of the compounds to rescue cells
Self-assembly activity (self-assembling ability) [3]: confirmed to have self-assembly activity

NS(=O)(=O)c1ccc(Nc2ccn3c(n2)nc(=O)c2sc4ccccc4c23)cc1 [compound 4]
Cytotoxicity ([4]; up to 100 μM): no obvious cytotoxicity

Cc1ccc2c(c1)sc1c(=O)nc3nc(Nc4ccc(S(N)(=O)=O)cc4)ccn3c12 [compound 5]
Ability to rescue cells from tunicamycin-induced ER stress ([1]; tunicamycin 5.0 μg/mL 48 h): lost activity
Size of assemblies/particles in living-cell imaging [5]: 5 µm
Cytotoxicity ([4]; at 25 μM): no obvious cytotoxicity
Cytotoxicity ([4]; at 100 μM): slightly reduced cell viability
